# Test results from patent US20070128217A1 (priority 2003, published 2007).
# Assays:
# [1] = system: rabbit serum obtained by immunizing a rabbit with the SARS-CoV strain Frankfurt 1; assay type: binding; design: Binding of a rabbit serum to linear peptides / Binding of a rabbit serum to looped peptides / Rabbit serum linear peptides / Rabbit serum looped peptides / Binding of a rabbit serum to linear peptides of protein N of SARS-CoV Urbani (Rabbit serum linear peptides) / Binding of a rabbit serum to looped/cyclic peptides of protein N of SARS-CoV Urbani (Rabbit serum looped peptides): unit not given here
# [2] = system: control sera (pooled serum of ten healthy LUMC hospital workers; commercial negative donor pooled serum from the Dutch bloodbank); assay type: binding, human; design: Binding of Control serum LUMC to linear peptides / Binding of Control serum Blood-bank to linear peptides / Binding of Control serum LUMC to looped peptides / Binding of Control Serum Blood-Bank to Looped peptides / Binding of Control serum LUMC to linear peptides of the protein M of SARS-CoV Urbani / Binding of Control serum Blood-bank to linear peptides of the protein M of SARS-CoV Urbani / Binding of Control serum LUMC to looped peptides of the protein M of SARS-CoV Urbani / Binding of Control Serum Blood-Bank to Looped peptides of the protein M of SARS-CoV Urbani: unit not given here
# [3] = system: antibodies in sera from SARS patients (sera 1a, 1b, 2, 6, 37, 62, London, SARS-yellow, SARS-green); assay type: binding, human; design: Binding of serum 6 to linear peptides of protein X1 of SARS-CoV Urbani / Binding of serum 37 to linear peptides of protein X1 of SARS-CoV Urbani / Binding of serum 6 to looped/cyclic peptide (PEPSCAN-ELISA) / Binding of serum 37 to looped/cyclic peptide (PEPSCAN-ELISA) / Binding of serum 37 to looped/cyclic peptides of protein X1 of SARS-CoV Urbani / Binding of serum 6 to linear peptides of protein X2 / Binding of serum 37 to linear peptides of protein X2 / Binding of serum 37 to looped/cyclic peptides of protein X2 of SARS-CoV Urbani / Binding of serum 6 to linear peptides of protein M of SARS-CoV Urbani / Binding of serum 37 to linear peptides of protein M of SARS-CoV Urbani / Binding of serum 6 to looped/cyclic peptides of protein M of SARS-CoV Urbani / Binding of serum 37 to looped/cyclic peptides of protein M of SARS-CoV Urbani / Binding of serum 6 to linear peptides of protein X3 of SARS-CoV Urbani / Binding of serum 37 to linear peptides of protein X3 of SARS-CoV Urbani / Binding of serum 37 to looped/cyclic peptides of protein X3 of SARS-CoV Urbani / Binding of serum 6 to linear peptides of protein X4 of SARS-CoV Urbani / Binding of serum 37 to linear peptides of protein X4 of SARS-CoV Urbani / Binding of serum 37 to looped/cyclic peptides of protein X4 of SARS-CoV Urbani / Binding of serum 6 to linear peptides of protein X5 of SARS-CoV Urbani / Binding of serum 37 to linear peptides of protein X5 of SARS-CoV Urbani / Binding of serum 37 to looped/cyclic peptides of protein X5 of SARS-CoV Urbani / Binding of serum 6 to linear peptides of protein N of SARS-CoV Urbani / Binding of serum 37 to linear peptides of protein N of SARS-CoV Urbani / Binding of serum 6 to linear peptide (PEPSCAN-ELISA) / Binding of serum 1a to looped/cyclic peptides of protein N of SARS-CoV Urbani / Binding of serum 1b to looped/cyclic peptides of protein N of SARS-CoV Urbani / Binding of serum 2 to looped/cyclic peptides of protein N of SARS-CoV Urbani / Binding of serum 6 to looped/cyclic peptides of protein N of SARS-CoV Urbani / Binding of serum 37 to looped/cyclic peptides of protein N of SARS-CoV Urbani / Binding of serum 62 to looped/cyclic peptides of protein N of SARS-CoV Urbani / Binding of serum London to looped/cyclic peptides of protein N of SARS-CoV Urbani / Binding of serum SARS-green to looped/cyclic peptides of protein N of SARS-CoV Urbani: unit not given here
sequence,measurement,setting,value
TITVEELKQLLEQWN,Recognition of the peptide by the rabbit serum,[1],recognized
ASTVHATATIPLQAS,Binding of a rabbit serum to linear peptides,[1],0.9
same,Binding of a rabbit serum to looped peptides,[1],0.6
LLIQQWTQFMMSRRR,Binding of Control Serum Blood-Bank to Looped peptides,[2],0.6
same,Binding of Control serum Blood-bank to linear peptides,[2],0.5
same,Binding of Control serum LUMC to linear peptides,[2],0.4
same,Binding of Control serum LUMC to looped peptides,[2],0.5
CPSGTYEGNSPFHPL,Binding of Control Serum Blood-Bank to Looped peptides,[2],0.8
same,Binding of Control serum Blood-bank to linear peptides,[2],0.7
same,Binding of Control serum LUMC to linear peptides,[2],0.6
same,Binding of Control serum LUMC to looped peptides,[2],0.8
KQLLEQWNLVIGFLF,Binding of Control Serum Blood-Bank to Looped peptides of the protein M of SARS-CoV Urbani,[2],0.6
same,Binding of Control serum Blood-bank to linear peptides of the protein M of SARS-CoV Urbani,[2],0.5
same,Binding of Control serum LUMC to linear peptides of the protein M of SARS-CoV Urbani,[2],0.6
same,Binding of Control serum LUMC to looped peptides of the protein M of SARS-CoV Urbani,[2],0.7
same,Binding of serum 1a to linear peptides of protein M of SARS-CoV Urbani,[3],0.7
same,Binding of serum 1a to looped/cyclic peptides of protein M of SARS-CoV Urbani,[3],0.7
same,Binding of serum 1b to linear peptides of protein M of SARS-CoV Urbani,[3],0.6
same,Binding of serum 1b to looped/cyclic peptides of protein M of SARS-CoV Urbani,[3],0.6
same,Binding of serum 2 to linear peptides of protein M of SARS-CoV Urbani,[3],0.4
same,Binding of serum 2 to looped/cyclic peptides of protein M of SARS-CoV Urbani,[3],0.5
same,Binding of serum 6 to linear peptides of protein M of SARS-CoV Urbani,[3],0.3
same,Binding of serum 6 to looped/cyclic peptides of protein M of SARS-CoV Urbani,[3],1.0
same,Binding of serum 37 to linear peptides of protein M of SARS-CoV Urbani,[3],0.3
same,Binding of serum 37 to looped/cyclic peptides of protein M of SARS-CoV Urbani,[3],0.5
same,Binding of serum 62 to linear peptides of protein M of SARS-CoV Urbani,[3],0.4
same,Binding of serum 62 to looped/cyclic peptides of protein M of SARS-CoV Urbani,[3],0.7
same,Binding of serum London to linear peptides of protein M of SARS-CoV Urbani,[3],0.3
same,Binding of serum London to looped/cyclic peptides of protein M of SARS-CoV Urbani,[3],0.3
same,Binding of serum SARS-green to linear peptides of protein M of SARS-CoV Urbani,[3],0.4
same,Binding of serum SARS-green to looped/cyclic peptides of protein M of SARS-CoV Urbani,[3],0.4
same,Binding of serum SARS-yellow to linear peptides of protein M of SARS-CoV Urbani,[3],0.2
same,Binding of serum SARS-yellow to looped/cyclic peptides of protein M of SARS-CoV Urbani,[3],0.8
TLGSITAQPVKTDNA,Binding of Control Serum Blood-Bank to Looped peptides,[2],0.6
same,Binding of Control serum Blood-bank to linear peptides,[2],0.5
same,Binding of Control serum LUMC to linear peptides,[2],0.7
same,Binding of Control serum LUMC to looped peptides,[2],0.6
GNSPFHPLADNKFAL,Rabbit serum linear peptides,[1],0.5
same,Rabbit serum looped peptides,[1],1.0
PASTVHATATIPLQA,Binding of a rabbit serum to linear peptides,[1],0.9
same,Binding of a rabbit serum to looped peptides,[1],0.5
PTTLFAGTHITMTTV,Binding of a rabbit serum to linear peptides,[1],0.8
same,Binding of a rabbit serum to looped peptides,[1],0.4
CPSGTYEGNSPFNPL,Rabbit serum linear peptides,[1],0.5
same,Rabbit serum looped peptides,[1],0.7
QLALYKGFQPICNLL,Binding of serum 1a to linear peptides of protein X1 of SARS-CoV Urbani,[3],0.6
same,Binding of serum 1b to linear peptides of protein X1 of SARS-CoV Urbani,[3],0.5
same,Binding of serum 2 to linear peptides of protein X1 of SARS-CoV Urbani,[3],0.4
same,Binding of serum 6 to linear peptides of protein X1 of SARS-CoV Urbani,[3],0.5
same,Binding of serum 37 to linear peptides of protein X1 of SARS-CoV Urbani,[3],0.6
same,Binding of serum 62 to linear peptides of protein X1 of SARS-CoV Urbani,[3],0.6
same,Binding of serum London to linear peptides of protein X1 of SARS-CoV Urbani,[3],0.2
same,Binding of serum SARS-green to linear peptides of protein X1 of SARS-CoV Urbani,[3],0.2
same,Binding of serum SARS-yellow to linear peptides of protein X1 of SARS-CoV Urbani,[3],0.5
ASPASTVHATATIPL,Binding of a rabbit serum to linear peptides,[1],1.4
same,Binding of a rabbit serum to looped peptides,[1],0.5
GTHITMTTVYHITVS,Binding of a rabbit serum to linear peptides,[1],2.1
same,Binding of a rabbit serum to looped peptides,[1],0.4
YLHEGHQTAAFRDVL,Rabbit serum linear peptides,[1],0.2
same,Rabbit serum looped peptides,[1],0.6
HEGHQTAAFRDVLVV,Rabbit serum linear peptides,[1],0.2
same,Rabbit serum looped peptides,[1],0.8
